Assay results published in patent publication US6630128B1, “Porphyrin derivatives their use in photodynamic therapy and medical devices containing them” (Destiny Pharma Limited, priority 1999, dated 2003).
Where two headings read alike, the source gives them in different places.

Columns and labels:
[1] = reference values from Handbook of Photochemistry Ed 2; not measured in this work; cited from earlier work
[2] = literature values (Rossbroich et al. 1985; Wilkinson et al. 1993); cited from earlier work
[3] = Singlet oxygen quantum yields (singlet oxygen phosphorescence at 1270 nm); format: physicochemical; details: for quantum yield of singlet oxygen production, ΦΔ (cross-calibration of reference materials): cross-calibrated against TPP ΦΔ=0.58, present work; for ΦΔ (singlet oxygen quantum yield): aerated toluene, excitation 355 nm, 20-23° C., relative to TPP ΦΔ=0.58
Protocol: The singlet oxygen quantum yields were determined by the direct measurement of singlet oxygen phosphorescence at 1270 nm. Samples were excited using the third harmonic of a Q-switched Nd:YAG (neodymium: yttrium-aluminium-garnet) Spectra Physics GCR-150-10 laser, operating at an excitation wavelength of 355 nm. A small fraction of the laser output was passed through a solution state filter containing aqueous cobalt (II) sulphate (CoSO4) to remove residual 532 and 1064 nm radiation and then down a 8 mm diameter liquid light guide (Oriel). For the measurements the end of the light guide was held against a 1 cm×1 cm fluorescence cuvette (Hellma) holding the sample. During the course of the experiments the incident laser energy for each measurement was determined using a pyroelectric detector held behind the sample. This detector was calibrated at the start of the experiment using a second calibrated energy meter (Gentec ED100). The laser energy was adjusted by placing cells containing aqueous sodium nitrite between the CoSO4 filter and the light guide. Typical pulse energies used were in the range of 25-500 μJ per pulse. Shot to shot noise was estimated to be <10% and sets of 20 shots gave an average value within <3%.
Phosphorescence from the sample was collected and passed through an interference filter centred at 1270 nm available from (Infra Red Engineering Ltd) and then focused onto the active area of a liquid nitrogen cooled germanium photodiode (North Coast EO-817P). The output from this device was AC coupled to a digital oscilloscope (Tektronix TDS-320) which digitised and averaged the transients. Typically 20 laser shots were used for each sample. The averaged data was transferred to a PC where it was stored and analysed.
A stock solution of each of the title compounds of Examples 67 to 81 was prepared by dissolving a small sample of the respective title compound in approximately 5 ml of toluene (Fisher Scientific, Analytical grade). The exact concentrations of the stock solution was not determined.
A working solution of each of the title compounds of Examples 67 to 81 was prepared by diluting the respective stock solution with toluene to give an absorbance of 0.100±0.005 at 355 nm when placed in a ultraviolet/visible spectrometer (ATI-Unicam UV-2) compared to a reference cell containing the pure toluene solvent. The ultraviolet/visible spectrum of each sample was also recorded over the range 300-700 nm.
All of the data were recorded at ambient temperature, 20-23° C., and the solutions were aerated. The singlet oxygen emission decay was recorded for each sample using 5 laser energies and the data for each measurement were fitted to an exponential decay of the form I(t)=A.exp(−t/τ), where I(t) is the measured intensity of singlet oxygen phosphorescence at time t, A is the intensity extrapolated back to t=0 (ie when the laser fires), and τ is the lifetime of singlet oxygen. A typical decay for the title compound of Example 78 in toluene excited at 355 nm using a pulse energy of 365 μJ, where A=19.6 and τ=27.8 μs, is shown in FIG. 2.
A plot of A versus the incident laser energy was drawn for each sample and the slope determined. The slope of such a graph is proportional to the singlet oxygen quantum yield. An example of a plot showing the linear relationship between the singlet oxygen emission intensity and the laser energy for the title compound of Example 78 and meso-tetraphenylporphyrin (TPP) is shown in FIG. 3.
The experiments were carried out using batches of 5 samples of the working solution of each of the title compounds of 67 to 81 plus one reference sample meso-tetraphenylporphyrin (TPP). Each run was repeated at least once. The data sets obtained for each sample were within ±5% of the mean value.
The dominant sources of error in the experiment include the shot-to-shot fluctuations in the laser and the difference in absorbances of the samples at the excitation wavelength. The values have an error of ±10%. […]

[4] = Fluorescence quantum yields (corrected emission spectra, relative to TPP); format: physicochemical; details: excitation wavelength 355 nm, emission 550-800 nm
Protocol: Mass spectra were recorded on a Finnigan MAT TSQ 700 triple quadrupole mass spectrometer equipped with an […]. The matrix-assisted laser desorption/ionization mass spectra of the porphyrins were obtained using a dithranol matrix. FAB-MS spectra were obtained using a 3-nitrobenzyl alcohol (NOBA) matrix. ^1H-NMR spectra were measured at 60 MHz on a Jeol JNM-PMX60 spectrometer, at 270 MHz on a Jeol EX 270 spectrometer and at 300 MHx on a Varian Gemini-300 spectrometer in CDCl3 using TMS as an internal reference. Ultraviolet/visible spectra of solutions of compounds in tetrahydrofuran (THF) or toluene were measured using a Hitachi U-3000 spectrophotometer or a ATI-Unicam UV-2 spectrophotometer. Reflectance-absorbance infra red (RAIR) spectra were recorded on a BIO-RAD FTS 165 spectrophotometer. Fluorescence emission spectra were recorded using a Spex Fluorolog 3 spectrophotometer at an excitation wavelength of 355 nm, emission at 550 to 800 nm, with a bandpass of 2 nm.
The emission spectra were recorded using a Spex Fluorolog 3, excitation wavelength=355 nm, emission 550-800 nm, with a bandpass of 2 nm. A spectrum was recorded for each of the title compounds of Examples 67 to 81.
The fluorescence quantum yield for each of the title compounds of Examples 67 to 81 was determined by measuring the integral of the corrected emission spectra for each compound and calculated relative to TPP=0.11 (Handbook of Photochemistry Ed 2, Murov, Carmichael and Hug, Dekker 1993). The fluorescence quantum yield for each of the title compounds of Examples 67 to 81 are listed in Table 1; values for Zn TPP and Mg TPP are included in Table 1 for reference but they were not measured in this work.

Compound	Quantum yield of fluorescence, relative to TPP = 0.11 [1]	quantum yield of singlet oxygen production, ΦΔ, literature value [2]	quantum yield of singlet oxygen production, ΦΔ (cross-calibration of reference materials) [3]	Quantum yield of fluorescence, relative to TPP = 0.11 [4]	ΦΔ (singlet oxygen quantum yield) [3]
C1=Cc2nc1c(-c1ccccc1)c1ccc([nH]1)c(-c1ccccc1)c1nc(c(-c3ccccc3)c3ccc([nH]3)c2-c2ccccc2)C=C1 [TPP, meso-tetraphenylporphyrin]	0.11	0.58	–	–	–
C1=Cc2nc1c(-c1ccccc1)c1ccc([n-]1)c(-c1ccccc1)c1nc(c(-c3ccccc3)c3ccc([n-]3)c2-c2ccccc2)C=C1.[Zn+2] [Zn TPP, zinc tetraphenylporphyrin]	0.04	0.73	0.77±0.07	–	–
C1=Cc2nc1c(-c1ccccc1)c1ccc([n-]1)c(-c1ccccc1)c1nc(c(-c3ccccc3)c3ccc([n-]3)c2-c2ccccc2)C=C1.[Mg+2] [Mg TPP, magnesium tetraphenylporphyrin]	0.15	–	–	–	–
5,5′-{4,4′-[12,12′-Dithiobis-(dodecyloxy)-phenyl]}-10,10′,15,15′,20,20′-hexakis-(3,4,5-tridecyloxy-phenyl)-diporphyrinato Magnesium [Example 68]	–	–	–	0.10	0.39 ± 0.04
5-[4-(12-but-3-Enyloxy-dodecyloxy)-phenyl]-10,15,20-tris-(3,5-didecyloxy-phenyl)-porphyrinato Zinc [Example 80]	–	–	–	0.04	0.75 ± 0.07
[Zn+2].c1ccc2c(c1)-c1nc-2nc2[n-]c(nc3nc([n-]c4nc(n1)-c1ccccc1-4)-c1ccccc1-3)c1ccccc21 [zinc phthalocyanine, reference compound]	–	0.50	0.46±0.05	–	–
